This passage reports pest or weed control results from patent US8828908B2, “Herbicidally active bicyclic 1,3-dione compounds” (Syngenta Limited, priority 2007, dated 2014).

Assay type in all cases: in vivo
The subject of experiment [1] is Lolium perenne (LOLPE). The experiment can be described thus: Example B pre-emergence herbicidal greenhouse test. As to conditions: 480 h, evaluated after 20 days, 100=total damage to plant, 0=no damage. How it is done: (§1) Seeds of a variety of test species were sown in standard soil in pots. After cultivation for one day (pre-emergence) or after 10 days cultivation (post-emergence) under controlled conditions in a glasshouse, the plants were sprayed with an aqueous spray solution derived from the formulation of the technical active ingredient in 0.6 ml acetone and 45 ml formulation solution containing 10.6% Emulsogen EL (Registry number 61791-12-6), 42.2% N-methylpyrrolidone, 42.2% dipropylene glycol monomethyl ether (Registry number 34590-94-8) and 0.2% X-77 (Registry number 11097-66-8). The test plants were then grown in a greenhouse under optimum conditions until, 15 days later for post-emergence and 20 days for pre-emergence, the test was evaluated (100=total damage to plant; 0=no damage to plant).
(§2) Alopecurus myosuroides (ALOMY), Avena fatua (AVEFA), Lolium perenne (LOLPE), Setaria faberi (SETFA), Digitaria sanguinalis (DIGSA), Echinochloa crus-galli (ECHCG)

The subject of experiment [2] is Avena fatua (AVEFA). The experiment can be described thus: Example B pre-emergence herbicidal greenhouse test. As to conditions: 480 h, evaluated after 20 days, 100=total damage to plant, 0=no damage. The procedure:
as §1, §2

Experiment [3] relates to Alopecurus myosuroides (ALOMY). The experiment can be described thus: Example B pre-emergence herbicidal greenhouse test. As to conditions: 480 h, evaluated after 20 days, 100=total damage to plant, 0=no damage. How it is done: as §1, §2
Experiment [4] concerns Digitaria sanguinalis (DIGSA). The experiment can be described thus: Example B pre-emergence herbicidal greenhouse test. As to conditions: 480 h, evaluated after 20 days, 100=total damage to plant, 0=no damage. How it is done: as §1, §2
Experiment [5] relates to Setaria faberi (SETFA). The experiment can be described thus: Example B pre-emergence herbicidal greenhouse test. As to conditions: 480 h, evaluated after 20 days, 100=total damage to plant, 0=no damage. How it is done: as §1, §2
Experiment [6] concerns Echinochloa crus-galli (ECHCG). The experiment can be described thus: Example B pre-emergence herbicidal greenhouse test. As to conditions: 480 h, evaluated after 20 days, 100=total damage to plant, 0=no damage. How it is done: as §1, §2
Experiment [7] deals with Lolium perenne (LOLPE). The experiment is described as follows: Example B post-emergence herbicidal greenhouse test. As to conditions: 360 h, evaluated after 15 days, 100=total damage to plant, 0=no damage. How it is done: as §1, §2
Experiment [8] concerns Avena fatua (AVEFA). The experiment is described as above. The following applies: 360 h, evaluated after 15 days, 100=total damage to plant, 0=no damage. How it is done: as §1, §2
Experiment [9] deals with Alopecurus myosuroides (ALOMY). The description is as above. As to conditions: 360 h, evaluated after 15 days, 100=total damage to plant, 0=no damage. How it is done: as §1, §2
Experiment [10] concerns Digitaria sanguinalis (DIGSA). The experiment is described as above. The following applies: 360 h, evaluated after 15 days, 100=total damage to plant, 0=no damage. How it is done: as §1, §2
Experiment [11] has as its system Setaria faberi (SETFA). The description is as above. The following applies: 360 h, evaluated after 15 days, 100=total damage to plant, 0=no damage. The procedure: as §1, §2
For experiment [12], the system named is Echinochloa crus-galli (ECHCG). The description is as above. As to conditions: 360 h, evaluated after 15 days, 100=total damage to plant, 0=no damage. The procedure:
as §1, §2

Consider `Cc1ccc(-c2ccc(Cl)cc2C)cc1C1=C(O)[C@H]2CC[C@H](C2)C1=O` (single isomer, unassigned) [Compound T26], for which the pest or weed control (as a rule, the degree to which the test organism was suppressed or injured, in per cent) at 250 g/ha in experiment [1] was found to be 20%; in experiment [2], 0%; in experiment [3], 0%; in experiment [4] it was 0%; in experiment [5], 50%; in experiment [6] it was 30%. Moreover, the pest or weed control at 125 g/ha was found to be 10% in experiment [7]; 0% in [8]; 20% in [9]; 10% in [10]; 60% in experiment [11]; 60% in experiment [12].
Regarding `Cc1ccc(-c2ccc(Cl)cc2F)cc1C1=C(O)[C@H]2CC[C@H](C2)C1=O` (single isomer, unassigned) [Compound T27], the pest or weed control at 250 g/ha in [1] is 70%; in [2], 50%; in [3] it was 60%; in experiment [4], 80%; in [5], 100%; in [6] it was 80%. Besides, the pest or weed control at 125 g/ha in experiment [7] came out at 30%; in [8], 70%; in [9] it was 30%; in experiment [10], 70%; in [11] it was 90%; in experiment [12], 80%.
Take `Cc1ccc(-c2cc(Cl)cc(Cl)c2)cc1C1=C(O)[C@H]2CC[C@H](C2)C1=O` (single isomer, unassigned) [Compound T28]: the pest or weed control at 250 g/ha in [1] was determined as 20%; in [2], 10%; in [3], 0%; in [4] it was 0%; in [5], 0%; in experiment [6], 0%. In addition, the pest or weed control at 125 g/ha stood at 0% in [7]; 10% in experiment [8]; 20% in experiment [9]; 0% in [10]; 10% in experiment [11]; 0% in experiment [12].
Take `Cc1ccc(-c2ccc(F)c(Cl)c2)cc1C1=C(O)[C@H]2CC[C@H](C2)C1=O` (single isomer, unassigned) [Compound T29]: the pest or weed control at 250 g/ha was 20% in [1]; 0% in [2]; 10% in [3]; 0% in [4]; 70% in experiment [5]; 20% in experiment [6]. In addition, the pest or weed control at 125 g/ha was 0% in [7]; 0% in experiment [8]; 30% in experiment [9]; 10% in experiment [10]; 60% in experiment [11]; 50% in [12].
As for `COc1ccc(Cl)cc1-c1ccc(C)c(C2=C(O)[C@H]3CC[C@H](C3)C2=O)c1` (single isomer, unassigned) [Compound T30], the pest or weed control at 250 g/ha in [1], in experiment [2], in [3], in experiment [4], in experiment [5] and in experiment [6] was 0% in each case. For the same compound, the pest or weed control at 125 g/ha stood at 10% in [7]; 10% in experiment [8]; 10% in experiment [9]; 0% in [10]; 0% in experiment [11]; 0% in [12].
Consider `Cc1ccc(-c2ccc(Cl)c(F)c2)cc1C1=C(O)[C@H]2CC[C@H](C2)C1=O` (single isomer, unassigned) [Compound T31], for which the pest or weed control at 250 g/ha in [1] was 30%; in [2] it was 40%; in experiment [3], 70%; in experiment [4] it was 70%; in experiment [5] it was 100%; in experiment [6], 80%. Further, the pest or weed control at 125 g/ha in experiment [7] is 20%; in experiment [8] it was 0%; in experiment [9] it was 30%; in experiment [10], 70%; in experiment [11] it was 80%; in [12] it was 70%.
Take `CC(=O)OC1=C(c2c(C)cc(-c3ccccc3)cc2C)C(=O)[C@@H]2CC[C@H]1C2` [Compound P1]: the pest or weed control at 250 g/ha is 60% in [1]; 30% in [2]; 30% in experiment [3]; 70% in experiment [4]; 70% in experiment [5]; 100% in [6]. The pest or weed control at 125 g/ha in experiment [7] amounted to 20%; in experiment [8], 0%; in experiment [9], 20%; in experiment [10] it was 60%; in [11] it was 70%; in experiment [12] it was 60%.
For `Cc1cc(-c2ccccc2)cc(C)c1C1=C(OC(=O)C(C)(C)C)C2CCC(C2)C1=O` (stereo not drawn) [Compound P2, 3-(3,5-dimethylbiphen-4-yl)-4-oxo-bicyclo[3.2.1]oct-2-en-2-yl 2,2-dimethylpropionate], the pest or weed control at 250 g/ha amounted to 30% in experiment [1]; 40% in experiment [2]; 30% in experiment [3]; 70% in experiment [4]; 70% in experiment [5]; 50% in [6]. The pest or weed control at 125 g/ha was determined as 10% in experiment [7]; 0% in experiment [8]; 30% in experiment [9]; 40% in [10]; 40% in experiment [11]; 60% in experiment [12].
As to `CCc1ccc(-c2ccc(F)cc2)cc1C1=C(O)[C@H]2CC[C@H](C2)C1=O` [Compound T3], the pest or weed control at 250 g/ha in experiment [1] came to 70%; in experiment [2], 60%; in experiment [3] it was 50%; in experiment [4], 80%; in [5] it was 100%; in experiment [6], 100%. Moreover, the pest or weed control at 125 g/ha in experiment [7] was found to be 0%; in experiment [8], 30%; in [9], 50%; in [10], 80%; in [11] it was 90%; in experiment [12], 90%.
Take `CCc1ccc(-c2ccc(C)cc2)cc1C1=C(O)[C@H]2CC[C@H](C2)C1=O` [Compound T5]: the pest or weed control at 250 g/ha was 0% in [1]; 10% in experiment [2]; 0% in [3]; 10% in [4]; 0% in experiment [5]; 100% in experiment [6]. The pest or weed control at 125 g/ha in [7] stood at 0%; in experiment [8] it was 0%; in experiment [9] it was 0%; in experiment [10], 50%; in experiment [11], 70%; in experiment [12], 80%.
Turning to `Cc1cc(-c2ccccc2)cc(C)c1C1=C(O)[C@H]2CC[C@H](C2)C1=O` [Compound T6, 3-(3,5-dimethylbiphen-4-yl)bicyclo[3.2.1]-2,4-dione], the pest or weed control at 250 g/ha in [1] is 50%; in [2] it was 0%; in experiment [3] it was 60%; in [4] it was 100%; in experiment [5], 80%; in experiment [6] it was 90%. Moreover, the pest or weed control at 125 g/ha in [7] came to 10%; in experiment [8], 10%; in experiment [9], 20%; in experiment [10], 10%; in experiment [11], 0%; in experiment [12], 30%.
